Reference: PubChem BioAssay (NCI)
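Five compound concentrations were applied to cells in 96-well plates for 48 hours; endpoints were derived by simple linear interpolation of the resulting dose-response curve. GI50 marks 50% less growth. TGI marks complete inhibition of growth.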

Key:
Test in all cases: DTP human tumour cell line panel, 48 h
EKVX NSCLC = test system: EKVX NSCLC
OVCAR-5 ovarian = test system: OVCAR-5 ovarian
IGROV1 ovarian = test system: IGROV1 ovarian
786-0 renal = test system: 786-0 renal
HCT-15 colon = test system: HCT-15 colon
HL-60(TB) leukemia = test system: HL-60(TB) leukemia
CAKI-1 renal = test system: CAKI-1 renal
UACC-257 melanoma = test system: UACC-257 melanoma
NCI/ADR-RES ovarian = test system: NCI/ADR-RES ovarian
OVCAR-8 ovarian = test system: OVCAR-8 ovarian

C=C1CC2(CCS(=O)(=O)c3ccccc32)OC1=O (centres undefined)
TGI (EKVX NSCLC): 33.1 µM
TGI (OVCAR-5 ovarian): 27.3 µM
TGI (IGROV1 ovarian): 34.1 µM
TGI (786-0 renal): 15.7 µM
TGI (HCT-15 colon): 27.6 µM
TGI (HL-60(TB) leukemia): 8.64 µM
TGI (CAKI-1 renal): 3.3 µM
TGI (UACC-257 melanoma): 32.1 µM

O=C1NC(=NCCc2ccccn2)S/C1=C\c1ccc2ncccc2c1
GI50 (OVCAR-5 ovarian): > 22.3 µM
TGI (OVCAR-5 ovarian): > 25 µM
GI50 (IGROV1 ovarian): 9.29 µM
TGI (IGROV1 ovarian): > 25 µM
GI50 (786-0 renal): 16.8 µM
TGI (786-0 renal): > 25 µM
GI50 (HCT-15 colon): 7.2 µM
TGI (HCT-15 colon): > 25 µM
GI50 (NCI/ADR-RES ovarian): > 18.5 µM
TGI (NCI/ADR-RES ovarian): > 25 µM
GI50 (OVCAR-8 ovarian): 12.6 µM
TGI (OVCAR-8 ovarian): > 25 µM
GI50 (HL-60(TB) leukemia): 7.66 µM
TGI (HL-60(TB) leukemia): > 25 µM
GI50 (CAKI-1 renal): 6.94 µM
TGI (CAKI-1 renal): > 21.7 µM
GI50 (UACC-257 melanoma): 15.4 µM
TGI (UACC-257 melanoma): > 25 µM

COC(=O)CNc1nc(N(C)O)nc(N(C)O)n1
GI50 (EKVX NSCLC): 3.31 µM
TGI (EKVX NSCLC): > 100 µM
GI50 (OVCAR-5 ovarian): 9.24 µM
TGI (OVCAR-5 ovarian): > 100 µM
GI50 (IGROV1 ovarian): 7.38 µM
TGI (IGROV1 ovarian): 39.4 µM
GI50 (786-0 renal): 3.56 µM
TGI (786-0 renal): 66.8 µM
GI50 (HCT-15 colon): 0.551 µM
TGI (HCT-15 colon): > 100 µM
GI50 (NCI/ADR-RES ovarian): 2.86 µM
TGI (NCI/ADR-RES ovarian): > 100 µM
GI50 (OVCAR-8 ovarian): 3.31 µM
TGI (OVCAR-8 ovarian): > 100 µM
GI50 (CAKI-1 renal): 13.1 µM
TGI (CAKI-1 renal): > 100 µM
GI50 (UACC-257 melanoma): 11.6 µM
TGI (UACC-257 melanoma): 80.3 µM

CN(/N=C\c1ccnc2ccccc12)c1ccccc1
TGI (EKVX NSCLC): 91.2 µM
TGI (OVCAR-5 ovarian): 45.6 µM
TGI (IGROV1 ovarian): > 100 µM
TGI (786-0 renal): 37.7 µM
TGI (HCT-15 colon): 39.5 µM
TGI (OVCAR-8 ovarian): > 100 µM
TGI (HL-60(TB) leukemia): 39.2 µM
TGI (CAKI-1 renal): 91.7 µM
TGI (UACC-257 melanoma): 42.6 µM

COc1cc2c(c(OC)c1OC)-c1c(c3ccc([N+](=O)[O-])cc3c(=O)n1CCCN)C2=O
GI50 (EKVX NSCLC): 7.1 µM
TGI (EKVX NSCLC): 33 µM
GI50 (OVCAR-5 ovarian): 1.77 µM
TGI (OVCAR-5 ovarian): 6.35 µM
GI50 (IGROV1 ovarian): 8.7 µM
TGI (IGROV1 ovarian): 17.1 µM
GI50 (786-0 renal): 0.799 µM
TGI (786-0 renal): 1.51 µM
GI50 (HCT-15 colon): 8.16 µM
TGI (HCT-15 colon): 16.8 µM
GI50 (NCI/ADR-RES ovarian): 5.49 µM
TGI (NCI/ADR-RES ovarian): 15.6 µM
GI50 (OVCAR-8 ovarian): 1.79 µM
TGI (OVCAR-8 ovarian): 6.42 µM
GI50 (CAKI-1 renal): 0.895 µM
TGI (CAKI-1 renal): 10.9 µM
GI50 (UACC-257 melanoma): 8.22 µM
TGI (UACC-257 melanoma): 17 µM

Cc1ccc(C(=O)NCCN(C)C)c2nc3ccccc3cc12
TGI (EKVX NSCLC): 4.76 µM
TGI (OVCAR-5 ovarian): 8.71 µM
TGI (IGROV1 ovarian): > 100 µM
TGI (786-0 renal): > 100 µM
TGI (HCT-15 colon): 6.5 µM
TGI (OVCAR-8 ovarian): 7.99 µM
TGI (HL-60(TB) leukemia): > 100 µM
TGI (CAKI-1 renal): 25.6 µM
TGI (UACC-257 melanoma): 6.01 µM

O=C1C(=O)N(c2ccc(Cl)cc2)C(=O)C(=Nc2cccc3c(=O)[nH][nH]c(=O)c23)C1c1nc2ccccc2o1 (centres undefined)
TGI (EKVX NSCLC): > 100 µM
TGI (OVCAR-5 ovarian): > 100 µM
TGI (IGROV1 ovarian): > 100 µM
TGI (786-0 renal): > 100 µM
TGI (HCT-15 colon): > 100 µM
TGI (OVCAR-8 ovarian): > 100 µM
TGI (HL-60(TB) leukemia): > 100 µM
TGI (CAKI-1 renal): > 100 µM
TGI (UACC-257 melanoma): > 100 µM

Cn1cc(C2=C(c3cn(CCCCCO)c4ccccc34)C(=O)NC2=O)c2ccccc21
GI50 (OVCAR-5 ovarian): 11.8 µM
TGI (OVCAR-5 ovarian): > 25 µM
GI50 (IGROV1 ovarian): 8.04 µM
TGI (IGROV1 ovarian): 17.9 µM
GI50 (786-0 renal): 5.81 µM
TGI (786-0 renal): > 21.5 µM
GI50 (HCT-15 colon): 2.57 µM
TGI (HCT-15 colon): > 25 µM
GI50 (NCI/ADR-RES ovarian): 7.04 µM
TGI (NCI/ADR-RES ovarian): > 22.5 µM
GI50 (OVCAR-8 ovarian): 6.3 µM
TGI (OVCAR-8 ovarian): > 20.2 µM
GI50 (HL-60(TB) leukemia): 4.08 µM
TGI (HL-60(TB) leukemia): 11.5 µM
GI50 (CAKI-1 renal): 6.34 µM
TGI (CAKI-1 renal): > 23.3 µM
GI50 (UACC-257 melanoma): 9.48 µM
TGI (UACC-257 melanoma): > 25 µM

COC12OCCN(C)C1=CC(=O)C1(C)N=NCC12 (centres undefined)
TGI (EKVX NSCLC): > 100 µM
TGI (IGROV1 ovarian): > 100 µM
TGI (786-0 renal): > 100 µM
TGI (HCT-15 colon): > 100 µM
TGI (OVCAR-8 ovarian): > 100 µM
TGI (CAKI-1 renal): > 100 µM
TGI (UACC-257 melanoma): > 100 µM
